Laboratory results: patent publication US8956641B2, “Alpha adrenergic receptor agonists for treatment of inflammatory diseases” (Warsaw Orthopedic, Inc., priority 2008, dated 2015)

Test system: Rat Chronic Constriction Injury Model (neuropathic pain)
Details: clonidine subcutaneously 0.02 mg/kg/day; FIG. 4
Text: The inventors evaluated the efficacy of a five Month Clonidine/Polymer Drug Depot in the Rat Chronic Constriction Injury Model. The animal model was the Bennett Model (Wistar rat). The purpose: To determine whether a five month polymer clonidine-eluting depot can improve pain associated behavioral responses in a rat model of neuropathic pain.
Experimental Design: Four loose chromic gut ligatures, 1 mm apart, were tied around the common sciatic nerve at mid-thigh. Each animal received treatment of test or control article-according to the dosing described in Table 5.
The inventors have conducted the present study for a period of 64 days and have employed the following two tests: (1) the Hargreaves test; and (2) the von Frey test. The Hargreaves Tests of Thermal Hyperalgesia were conducted on days 7, 14, 21, 28, 35, 42, 49, 56 and 63. The von Frey monofilament test of mechanical allodynia (performed the day following Thermal testing) were conducted on days-8, 15, 22, 29, 36, 43, 50, 57 and 64.

SMILES: Clc1cccc(Cl)c1N=C1NCCN1 [clonidine, 2,6-dichloro-N2-imidazolidinyldenebenzenamine]
- pain behavioral response (percentage of baseline) for mechanical allodynia compared to unloaded polymer depots: reduced the behavioral response
